# Measurements from patent US20250186463A1, “ABIRATERONE DECANOATE PRODRUGS AND USE IN THERAPY” (PROPELLA THERAPEUTICS, INC., priority 2022, published 2025).
# Marks after values point to notes of the source that are not given here.
# Columns and labels:
# [1] = tested on: lymph node lesions; assay: Follow-up analysis and post-study PET/CT scan (Patient 1); assay type: in vivo, human; conditions: Patient 1, 180 mg, CSPC; enzalutamide started after study
# Method: Patient 1. This patient is in cohort 1, which was administered 180 mg of abiraterone decanoate. This patient is […], with CSPC, with a Gleason score ≤6, who entered the study with left common iliac and femoral lymph node involvement and measurable PSA. The patient received degarelix (March thru May 2021) and leuprolide (starting June 2021). Abiraterone decanoate was injected to the patient on Jul. […] On Sep. 24, 2021, this patient started enzalutamide (Xtandi) treatment.
# [2] = tested on: serum progesterone; assay: Phase 1/2a study: serum progesterone; assay type: in vivo, human
# Method: This is a Phase 1/2a, Open-label, Multicenter Study of Intramuscular Abiraterone Decanoate Depot in Patients with Advanced Prostate Cancer.
# Formulations and dosing regimen: The formulation used in the study (abiraterone decanoate for intramuscular [i.m.] injection) is a solution formulation of abiraterone decanoate at a concentration of 180 mg/mL and will be provided as a 10 mL vial containing 990 mg of abiraterone decanoate in 5.5 mL of solution. See further details of the formulations in Example 2 (for each milliliter: Abiraterone Decanoate, about 180 mg/mL; Benzyl Alcohol, about 100 mg/mL; Benzyl Benzoate, about 200 mg/mL; and Corn oil, q.s. to 1 mL). Abiraterone Decanoate will be administered as an i.m. injection every 84 days (±3 days). Dose escalation will proceed with a modified Fibonacci sequence. Based on emerging data, intermediate doses may be evaluated.
# Study Design: This is a Phase 1/2a, Open-label, Multicenter Study of Intramuscular Abiraterone Decanoate Depot in Patients with Advanced Prostate Cancer. In Phase 1, all patients will receive i.m. Abiraterone Decanoate depot in 84-day treatment cycles combined with daily oral prednisone or dexamethasone. In Phase 2a, patients will be randomized 1:1 and treated with i.m. Abiraterone Decanoate depot in 84-day treatment cycles in combination with dexamethasone (Arm A) or abiraterone acetate daily+prednisone (Arm B). In both Phases, patients will undergo scheduled periodic assessments of serum testosterone levels. Participants may continue treatment until they meet any discontinuation criteria outlined in the protocol.
# Pharmacodynamic Analysis: Determination of Prostate Specific Antigen (PSA), serum testosterone, dehydroepiandrosterone (DHEA), dehydroepiandrosterone sulfate (DHEA-S), androstenedione, dihydrotestosterone (DHT), progesterone, cortisol, adrenocorticotropic hormone (ACTH), corticosterone, 11-dexoycorticosterone (11-DOC) and 11-deoxycortisol.
# Based on the available data, the recommended dose for Phase 2 is about 1260 mg abiraterone decanoate once every three months (12 weeks). All cohorts 1 and 2 in this clinical study were treated with prednisone, 5 mg orally once or twice daily; and all cohorts 3-5 were treated with dexamethasone, 0.5 mg orally once daily. The results shown herein for these cohorts should be understood accordingly.
# See also Table 3B below. […] See also FIG. 11B for the absolute serum progesterone levels for cohorts 4 and 5, with the LLOQ being 1.59 nM. It should be noted that the maximum serum progesterone level observed for cohorts 1-3 is 2.5 nM. FIGS. 3F and 3G show the serum 11-deoxycorticosterone and corticosterone response in cohorts 3, 4, and 5, the trend is similar to that observed for progesterone levels above. See a summary shown in the Table 3C below for the first cycle.
smiles,measurement,setting,value
CCCCCCCCCC(=O)O[C@H]1CC[C@@]2(C)C(=CC[C@@H]3[C@@H]2CC[C@]2(C)C(c4cccnc4)=CC[C@@H]32)C1 [abiraterone decanoate],lymph node lesions on post-study PET/CT scan,[1],complete resolution of prior lymph node lesions
same,"Progesterone Changes during cycle 1, Percent (%)","[2]; 720 mg (N = 4), Day 14",−1%
same,"Progesterone Changes during cycle 1, Percent (%)","[2]; 720 mg (N = 4), Day 28",−2%
same,"Progesterone Changes during cycle 1, Percent (%)","[2]; 720 mg (N = 4), Day 56",0%
same,"Progesterone Changes during cycle 1, Percent (%)","[2]; 720 mg (N = 4), Day 84",0%
same,"Progesterone Changes during cycle 1, Percent (%)","[2]; 1,260 mg (N = 6), Day 14",20%
same,"Progesterone Changes during cycle 1, Percent (%)","[2]; 1,260 mg (N = 6), Day 28",35%
same,"Progesterone Changes during cycle 1, Percent (%)","[2]; 1,260 mg (N = 6), Day 56",0%
same,"Progesterone Changes during cycle 1, Percent (%)","[2]; 1,260 mg (N = 6), Day 84",0%
same,"Progesterone Changes during cycle 1, Percent (%)","[2]; 1,800 mg (N = 8), Day 14",165%
same,"Progesterone Changes during cycle 1, Percent (%)","[2]; 1,800 mg (N = 8), Day 28",86%
same,"Progesterone Changes during cycle 1, Percent (%)","[2]; 1,800 mg (N = 8), Day 56",12%
same,"Progesterone Changes during cycle 1, Percent (%)","[2]; 1,800 mg (N = 8), Day 84",13%
same,Serum Progesterone (% CFB),"[2]; Cohort 1, 180 mg i.m., Study Day 1 (baseline)",0%
same,Serum Progesterone (% CFB),"[2]; Cohort 1, 180 mg i.m., Study Day 14",0%
same,Serum Progesterone (% CFB),"[2]; Cohort 1, 180 mg i.m., Study Day 28",8%
same,Serum Progesterone (% CFB),"[2]; Cohort 1, 180 mg i.m., Study Day 56",0%
same,Serum Progesterone (% CFB),"[2]; Cohort 1, 180 mg i.m., Study Day 70",0%
same,Serum Progesterone (% CFB),"[2]; Cohort 2, 360 mg i.m., Study Day 1 (baseline)",0%
same,Serum Progesterone (% CFB),"[2]; Cohort 2, 360 mg i.m., Study Day 14",37%
same,Serum Progesterone (% CFB),"[2]; Cohort 2, 360 mg i.m., Study Day 28",8%
same,Serum Progesterone (% CFB),"[2]; Cohort 2, 360 mg i.m., Study Day 56",0%
same,Serum Progesterone (% CFB),"[2]; Cohort 2, 360 mg i.m., Study Day 84",0%
same,Serum Progesterone (% CFB),"[2]; Cohort 2, 360 mg i.m., Study Day 168",0%
same,Serum Progesterone (% CFB),"[2]; Cohort 2, 360 mg i.m., Study Day 252",0%
same,Serum Progesterone (% CFB),"[2]; Cohort 3, 720 mg i.m., Study Day 1 (baseline)",0%
same,Serum Progesterone (% CFB),"[2]; Cohort 3, 720 mg i.m., Study Day 14",−1%
same,Serum Progesterone (% CFB),"[2]; Cohort 3, 720 mg i.m., Study Day 28",−2%
same,Serum Progesterone (% CFB),"[2]; Cohort 3, 720 mg i.m., Study Day 56",0%
same,Serum Progesterone (% CFB),"[2]; Cohort 3, 720 mg i.m., Study Day 84",0%
same,Serum Progesterone (% CFB),"[2]; Cohort 3, 720 mg i.m., Study Day 168",6%
same,Serum Progesterone (% CFB),"[2]; Cohort 3, 720 mg i.m., Study Day 224",0%
same,Serum Progesterone (% CFB),"[2]; Cohort 3, 720 mg i.m., Study Day 252",0%
same,Serum Progesterone (% CFB),"[2]; Cohort 4, 1260 mg i.m., Study Day 1 (baseline)",0%
same,Serum Progesterone (% CFB),"[2]; Cohort 4, 1260 mg i.m., Study Day 14",20%
same,Serum Progesterone (% CFB),"[2]; Cohort 4, 1260 mg i.m., Study Day 28",35%
same,Serum Progesterone (% CFB),"[2]; Cohort 4, 1260 mg i.m., Study Day 42",0%
same,Serum Progesterone (% CFB),"[2]; Cohort 4, 1260 mg i.m., Study Day 56",0%
same,Serum Progesterone (% CFB),"[2]; Cohort 4, 1260 mg i.m., Study Day 70",22%
same,Serum Progesterone (% CFB),"[2]; Cohort 4, 1260 mg i.m., Study Day 84",0%
same,Serum Progesterone (% CFB),"[2]; Cohort 4, 1260 mg i.m., Study Day 112",6%
same,Serum Progesterone (% CFB),"[2]; Cohort 4, 1260 mg i.m., Study Day 140",0%
same,Serum Progesterone (% CFB),"[2]; Cohort 4, 1260 mg i.m., Study Day 168",1%
same,Serum Progesterone (% CFB),"[2]; Cohort 4, 1260 mg i.m., Study Day 224",0%
same,Serum Progesterone (% CFB),"[2]; Cohort 4, 1260 mg i.m., Study Day 252",0%
same,Serum Progesterone (% CFB),"[2]; Cohort 5, 1800 mg i.m., Study Day 1 (baseline)",0%
same,Serum Progesterone (% CFB),"[2]; Cohort 5, 1800 mg i.m., Study Day 14",165%
same,Serum Progesterone (% CFB),"[2]; Cohort 5, 1800 mg i.m., Study Day 28",86%
same,Serum Progesterone (% CFB),"[2]; Cohort 5, 1800 mg i.m., Study Day 42",0%
same,Serum Progesterone (% CFB),"[2]; Cohort 5, 1800 mg i.m., Study Day 56",12%
same,Serum Progesterone (% CFB),"[2]; Cohort 5, 1800 mg i.m., Study Day 70",0%
same,Serum Progesterone (% CFB),"[2]; Cohort 5, 1800 mg i.m., Study Day 84",8%
same,Serum Progesterone (% CFB),"[2]; Cohort 5, 1800 mg i.m., Study Day 140",0%
same,Serum Progesterone (% CFB),"[2]; Cohort 5, 1800 mg i.m., Study Day 168",−7%
same,Serum Progesterone (% CFB),"[2]; Cohort 5, 1800 mg i.m., Study Day 196",52%
same,Serum Progesterone (% CFB),"[2]; Cohort 5, 1800 mg i.m., Study Day 224",−7%
same,Serum Progesterone (% CFB),"[2]; Cohort 5, 1800 mg i.m., Study Day 252",0%
same,progesterone change from baseline,"[2]; Patient 1, cohort 1, 180 mg, FIG. 5",no progesterone increase from baseline
same,transient up stream steroid (progesterone) increase from baseline,"[2]; Patient 2, cohort 2, 360 mg, FIG. 6",returned to baseline
same,increases of progesterone levels during the second cycle,[2]; all cohorts,no significant increases
same,progesterone changes from baseline,[2]; all cohorts (180-1800 mg),not significant
same,time at which progesterone level returned to baseline,"[2]; cohort 5 (1800 mg), after first administration",~6 week
same,maximum serum progesterone level observed,"[2]; cohorts 1-3 (180, 360, 720 mg)",2.5 nM
same,Progesterone at Visit Day (nM),"[2]; patient 02-1403, Cohort 4, 1260 mg, mCRPC, Visit C4D28, assay LLOQ = 1.59 nM",<LLOQ
same,Progesterone at Visit Day (nM),"[2]; patient 02-1405, Cohort 4, 1260 mg, mCRPC, Visit C1D56, assay LLOQ = 1.59 nM",<LLOQ
same,Progesterone at Visit Day (nM),"[2]; patient 02-1504, Cohort 5, 1800 mg, mCRPC, Visit C1D28, assay LLOQ = 1.59 nM",<LLOQ
same,Progesterone at Visit Day (nM),"[2]; patient 04-1406, Cohort 4, 1260 mg, mCSPC, Visit C1D56, average of Day 28 and Day 70 values",2.90† nM
same,Progesterone at Visit Day,"[2]; patient 04-1503, Cohort 5, 1800 mg, mCSPC, Visit C1D84, assay LLOQ = 1.59 nM",2.54 nM
same,Progesterone at Visit Day (nM),"[2]; patient 04-1506, Cohort 5, 1800 mg, mCRPC, Visit C1D28, assay LLOQ = 1.59 nM",<LLOQ
same,Progesterone at Visit Day (nM),"[2]; patient 06-1401, Cohort 4, 1260 mg, mCRPC, Visit C3D84, assay LLOQ = 1.59 nM",<LLOQ
same,Progesterone at Visit Day (nM),"[2]; patient 06-1402, Cohort 4, 1260 mg, mCRPC, Visit C4D28, assay LLOQ = 1.59 nM",<LLOQ
same,Progesterone at Visit Day (nM),"[2]; patient 06-1404, Cohort 4, 1260 mg, mCSPC, Visit C2D84, assay LLOQ = 1.59 nM",<LLOQ
same,Progesterone at Visit Day (nM),"[2]; patient 06-1501, Cohort 5, 1800 mg, mCRPC, Visit C1D84, assay LLOQ = 1.59 nM",<LLOQ
same,Progesterone at Visit Day (nM),"[2]; patient 06-1502, Cohort 5, 1800 mg, mCSPC, Visit C2D84, assay LLOQ = 1.59 nM",<LLOQ
